From ChEMBL document CHEMBL1158647, “Synthesis and Pharmacology of Mangostin-3,6-di-O-glucoside” (1979)
The source made the active and inactive calls. No cut-off for these calls is given here.

Assays:
Mus musculus [1] = experiment: Effect on gross behavioral activity in Swiss albino mouse assessed as spontaneous motor activity at 5 mg/kg, ip after 45 mins using smoked drum; format: functional, organism-based; parameters: dose 5 mg/kg
Mus musculus [2] = experiment: Effect on gross behavioral activity in Swiss albino mouse assessed as sedation at 100 mg/kg, ip using smoked drum; format: functional, organism-based; parameters: dose 100 mg/kg
Mus musculus [3] = experiment: Effect on gross behavioral activity in Swiss albino mouse assessed as ptosis at 200 mg/kg, ip using smoked drum; format: functional, organism-based; parameters: dose 200 mg/kg
Mus musculus [4] = experiment: Effect on gross behavioral activity in Swiss albino mouse assessed as sedation at 200 mg/kg, ip using smoked drum; format: functional, organism-based; parameters: dose 200 mg/kg
Canis familiaris [5] = experiment: Increase in intestinal movement in anesthetized Mongrel dog at 25 mg/kg, iv; format: functional, organism-based; parameters: dose 25 mg/kg; settings: Canis lupus familiaris
Mus musculus [6] = experiment: Effect on gross behavioral activity in Swiss albino mouse assessed as CNS depression at 100 mg/kg, ip using smoked drum; format: functional, organism-based; parameters: dose 100 mg/kg; settings: Central nervous system
Mus musculus [7] = experiment: Effect on gross behavioral activity in Swiss albino mouse assessed as decrease in motor activity at 100 mg/kg, ip using smoked drum; format: functional, organism-based; parameters: dose 100 mg/kg
Canis familiaris [8] = experiment: Increase in carotid blood pressure in anesthetized Mongrel dog at 25 mg/kg, iv in presence of adrenaline; format: functional, organism-based; parameters: dose 25 mg/kg; settings: Canis lupus familiaris
Mus musculus [9] = experiment: Effect on gross behavioral activity in Swiss albino mouse assessed as CNS depression at 200 mg/kg, ip using smoked drum; format: functional, organism-based; parameters: dose 200 mg/kg; settings: Central nervous system
Mus musculus [10] = experiment: Effect on gross behavioral activity in Swiss albino mouse assessed as CNS depression at 300 mg/kg, ip using smoked drum; format: functional, organism-based; parameters: dose 300 mg/kg; settings: Central nervous system
Mus musculus [11] = experiment: Effect on gross behavioral activity in Swiss albino mouse assessed as decrease in motor activity at 200 mg/kg, ip using smoked drum; format: functional, organism-based; parameters: dose 200 mg/kg
Canis familiaris [12] = experiment: Increase in carotid blood pressure in anesthetized Mongrel dog at 25 mg/kg, iv in presence of Priscol; format: functional, organism-based; parameters: dose 25 mg/kg; settings: Canis lupus familiaris
Mus musculus [13] = experiment: Effect on gross behavioral activity in Swiss albino mouse assessed as ptosis at 100 mg/kg, ip using smoked drum; format: functional, organism-based; parameters: dose 100 mg/kg
Canis familiaris [14] = experiment: Increase in respiration in anesthetized Mongrel dog at 25 mg/kg, iv; format: functional, organism-based; parameters: dose 25 mg/kg; settings: Canis lupus familiaris
Mus musculus [15] = experiment: Effect on gross behavioral activity in Swiss albino mouse assessed as spontaneous motor activity at 200 mg/kg, ip after 45 mins using smoked drum; format: functional, organism-based; parameters: dose 200 mg/kg
Canis familiaris [16] = experiment: Increase in carotid blood pressure in anesthetized Mongrel dog at 25 mg/kg, iv; format: functional, organism-based; parameters: dose 25 mg/kg; settings: Canis lupus familiaris
Rattus norvegicus = experiment: Increase in pentobarbital-induced sleeping time in Wistar albino rat administered 30 mins before pentobarbital challenge relative to control; format: functional

SMILES	Activity (Mus musculus [1])	Activity (Mus musculus [2])	Activity (Mus musculus [3])	Activity (Mus musculus [4])	Activity (Canis familiaris [5])	Activity (Mus musculus [6])	Activity (Mus musculus [7])	Activity (Canis familiaris [8])	Activity (Mus musculus [9])	Activity (Mus musculus [10])	Activity (Mus musculus [11])	Activity (Canis familiaris [12])	Activity (Mus musculus [13])	Activity (Canis familiaris [14])	Activity (Mus musculus [15])	Activity (Canis familiaris [16])	Activity (Rattus norvegicus) [%]
C[C@H](N)Cc1ccccc1	Active	–	–	–	–	–	–	–	–	–	–	–	–	–	–	–	–
CN(C)CCCN1c2ccccc2Sc2ccc(Cl)cc21	Active	–	–	–	–	–	–	–	–	–	–	–	–	–	–	–	–
COc1c(O[C@@H]2O[C@H](CO)[C@@H](O)[C@H](O)[C@H]2O)cc2oc3cc(O[C@@H]4O[C@H](CO)[C@@H](O)[C@H](O)[C@H]4O)c(CC=C(C)C)c(O)c3c(=O)c2c1CC=C(C)C	Active	Active	Active	Active	Active	Active	Active	Active	Active	Active	Active	Active	Active	Active	Active	Active	53.81
